{"source": "patent US7083511B1", "about": "“Methods” (The University of Dundee, priority 1998, dated 2006)", "key": {"SGK2": {"target": "T1, SGK2 (Homo sapiens, UniProt Q9HBY8)", "T1 construct": "pEBG-SGK2α expressing full length of SGK2α; made in house; host or cells: 293 cells", "T1 sequence (Q9HBY8 1-367)": "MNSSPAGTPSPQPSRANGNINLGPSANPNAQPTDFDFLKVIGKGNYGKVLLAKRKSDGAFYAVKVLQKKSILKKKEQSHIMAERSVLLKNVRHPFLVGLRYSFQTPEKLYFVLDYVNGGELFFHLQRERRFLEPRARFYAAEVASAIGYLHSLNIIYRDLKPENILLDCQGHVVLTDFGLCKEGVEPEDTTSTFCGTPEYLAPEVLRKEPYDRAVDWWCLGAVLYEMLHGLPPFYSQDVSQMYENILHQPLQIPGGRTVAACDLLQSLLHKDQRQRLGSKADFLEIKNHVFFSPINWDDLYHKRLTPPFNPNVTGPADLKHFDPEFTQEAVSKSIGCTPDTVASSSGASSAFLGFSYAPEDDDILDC", "experiment": "Activation of SGK2 by PDK1 in vitro", "type": "biochemical", "conditions": "10 μM in PS/PC lipid vesicles", "experimental": "(§1) Each GST-SGK isoform (0.4 μg) was incubated for 20 min at 30° C. with protein phosphatase 2A (PP2A, 30 mU/ml) in a 10 μl incubation containing 20 mM Tris/HCl, pH 7.5, 0.1% (v/v) 2-mercaptoethanol, 0.1 mM EGTA and 1 mg/ml bovine serum albumin. After addition of microcystin-LR to 1 μM to inactivate PP2A, SGK (0.4 μg) was phosphorylated for 30 min at 30° C. in a mixture (20 μl) containing 50 mM Tris/HCl, pH 7.5, 10 mM MgCl2, 0.1% (v/v) 2-mercaptoethanol, 0.1 mM EGTA, GST-PDK1 (0.03–300 ng) diluted in Buffer C and 100 μM unlabelled ATP. SGK assays were initiated by the addition of 30 μl of a mixture containing 50 mM Tris/HCl, pH 7.5, 10 mM MgCl2, 0.1% (v/v) 2-mercaptoethanol, 0.1 mM EGTA, 100 μM [γ-^32P] ATP (500 c.p.m/pmol), 50 μM of the peptide substrate Crosstide ([…]) (SEQ. ID. NO:30) and 4.2 μM of residues 5–24 of the specific protein inhibitor of adenosine 3′5′ cyclic monophosphate-dependent protein kinase. After 10 min at 30° C., the reactions were terminated by spotting aliquots on to P81 phosphocellulose paper, followed by immediate immersion in 75 mM phosphoric acid. The papers were washed, dried and analysed. One unit (U) of SGK was that amount which phosphorylated 1 nmole of Crosstide in one min."}, "SGK": {"target": "T2, SGK (Homo sapiens, UniProt O00141)", "T2 construct": "PEBG-SGK expressing full length SGK; made in house; host or cells: 293 cells", "T2 sequence (O00141 whole entry, looked up)": "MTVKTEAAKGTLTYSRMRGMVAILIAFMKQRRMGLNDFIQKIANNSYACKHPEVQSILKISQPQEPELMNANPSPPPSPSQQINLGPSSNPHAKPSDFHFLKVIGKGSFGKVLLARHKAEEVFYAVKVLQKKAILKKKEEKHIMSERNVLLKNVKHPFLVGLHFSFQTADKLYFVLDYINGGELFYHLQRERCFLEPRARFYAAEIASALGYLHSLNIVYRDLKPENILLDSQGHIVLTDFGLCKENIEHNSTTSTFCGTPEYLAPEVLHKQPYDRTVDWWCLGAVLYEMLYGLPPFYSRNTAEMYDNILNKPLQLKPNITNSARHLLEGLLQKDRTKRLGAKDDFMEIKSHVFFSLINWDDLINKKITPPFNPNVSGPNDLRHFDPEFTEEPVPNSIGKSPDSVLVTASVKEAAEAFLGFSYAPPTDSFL", "experiment": "Phosphorylation and activation of SGK by PDK1 in vitro", "type": "biochemical", "conditions": "1 μM PtdIns(3,4,5)P3, with or without PS/PC lipid vesicles", "experimental": "(A) GST-SGK (0.3 μg) was phosphorylated using GST-PDK1 (0.1 μg) and [γ-^32P] ATP (500 cpm/pmol) as described under Methods. Where indicated (+), 1 μM PtdIns(3,4,5)P3 in lipid vesicles containing phosphatidylserine (100 μM) and phosphatidylcholine (100 μM) (PS/PC) were also included. The reactions were stopped by the addition of SDS to 2% and, after heating for 5 min at 95° C., the samples were subjected to electrophoresis on 10% SDS/polyacrylamide gels, stained with Coomasssie blue and then autoradiographed. The positions of the molecular mass markers are also indicated (B) Same as (A), except that unlabelled ATP was used instead of [γ-^32P] ATP. After incubation for 10 min at 30° C., 10 μl aliquots were assayed for SGK activity using Crosstide as substrate. The results are shown ±SD for three separate experiments.\nPhosphorylation and assay of SGK. Phosphorylation was carried out at 30° C. in 50 μl incubations containing 50 mM Tris/HCl pH 7.5, 0.1 mM EGTA, 0.1% (v/v) 2-mercaptoethanol, 2.5 μM PKI, 1 μM microcystin-LR, 10 mM magnesium chloride and 100 μM ATP. Where indicated lipid vesicles containing phosphatidylcholine (100 μM), phosphatidyl serine (100 μM) and PtdIns(3,4,5)P3 (1 μM) were also included. SGK activity was assayed exactly as described for PKB [6] using the peptide […] (SEQ. ID. NO:30) (“Crosstide”) at 30 μM as substrate. […]"}, "SGK3 [1]": {"target": "T3, SGK3 (Homo sapiens, UniProt Q96BR1)", "T3 construct": "made in house; host or cells: 293 cells", "T3 sequence (Q96BR1 68-496 limits assumed)": "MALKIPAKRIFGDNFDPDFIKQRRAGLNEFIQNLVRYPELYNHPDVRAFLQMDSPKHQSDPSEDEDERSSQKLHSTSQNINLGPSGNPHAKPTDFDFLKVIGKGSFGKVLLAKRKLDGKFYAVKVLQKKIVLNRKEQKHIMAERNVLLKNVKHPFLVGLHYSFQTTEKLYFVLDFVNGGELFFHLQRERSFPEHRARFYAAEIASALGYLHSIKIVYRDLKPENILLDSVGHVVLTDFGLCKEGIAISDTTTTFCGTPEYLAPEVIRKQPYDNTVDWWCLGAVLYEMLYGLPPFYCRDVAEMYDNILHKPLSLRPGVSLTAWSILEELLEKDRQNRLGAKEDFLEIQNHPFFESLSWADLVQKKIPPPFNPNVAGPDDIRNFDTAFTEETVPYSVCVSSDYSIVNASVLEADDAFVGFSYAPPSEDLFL", "experiment": "Activation of SGK3 by PDK1 in vitro", "type": "biochemical", "conditions": "10 μM in PS/PC lipid vesicles", "experimental": "as §1"}, "SGK3 [2]": {"tested_on": "SGK3", "experiment": "Activation of GST-SGK3 in transfected 293 cells (Example 5)", "type": "cell-based, human", "experimental": "(§2) Cells were transiently transfected with DNA constructs expressing (A) GST-SGK1, (B), GST-SGK2α and (C) GST-SGK3. At 24 h after transfection, the cells were deprived of serum for 16 h, then exposed to 50 ng/ml IGF-1 (10 min), 400 ng/ml phorbol myristate acetate (PMA) (30 min), 10% serum (30 min), 1 μM dexamethasone (Dex, 60 min), 2 mM H2O2 (25 min), 5 μg/ml anisomycin (AN, 30 min), 0.4 M sorbitol (30 min), hypotonic stress (1 ml of water added to 3 ml of DMEM, 30 min), UV radiation (30 min after exposure to 200 J/m2) or left untreated (control). After each treatment, the cells were lysed in ice-cold lysis buffer and SGK activity in 100 μg of cell lysate protein was measured.\n(§3) FIG. 20. […] Cells were transiently transfected with DNA constructs expressing (A) GST-SGK1, (B) GST-SGK2α and (C) GST-SGK3. At 24 h after transfection, the cells were deprived of serum for 16 h. The transfectants were then pretreated for 10 min with 100 nM wortmannin or for 1 h with 100 μM LY294002 and then stimulated for 25 min with 2 mM H2O2.\n(§4) Expression of SGK isoforms in 293 cells. […] After each treatment, the cells were lysed and the activity of SGK isoforms was measured after affinity purification of the GST-fusion proteins on glutathione Sepharose, as described previously for SGK1 [18]."}, "SGK1": {"tested_on": "SGK1", "experiment": "Activation of GST-SGK1 in transfected 293 cells (Example 5)", "type": "cell-based, human", "experimental": "as §2, §3, §4"}, "SGK2α": {"tested_on": "SGK2α", "experiment": "Activation of GST-SGK2α in transfected 293 cells (Example 5)", "type": "cell-based, human", "experimental": "as §2, §3, §4"}, "[3]": {"tested_on": "protein phosphatase 2A (PP2A)", "type": "biochemical"}, "[4]": {"conditions": "10% serum 30 min, 0.4 M sorbitol 30 min"}, "[5]": {"conditions": "IGF-1 50 ng/ml 10 min, H2O2 2 mM 25 min"}}, "note": "Starred links: 1 amine or outer side, 2 acyl side, 3 side chain; linkers in the order of their positions; H or OH if unused. Positions of bridges follow the written chain, without caps; N, C: chain ends. Non-standard residues stand in square brackets, D forms with d. Residues, ends and D or L forms follow the SMILES beside them. Adda = CO[C@@H](Cc1ccccc1)[C@@H](C)/C=C(C)/C=C/[C@H](N[*:1])[C@H](C)C(=O)[*:2]; dAsp(3S-Me) = C[C@H](C(=O)[*:3])[C@@H](N[*:1])C(=O)[*:2]; d(γGlu) = O=C(O)[C@@H](CCC(=O)[*:2])N[*:1]; NMeDha = C=C(NC)C(=O)O"}
{"molecule": "PtdIns(3,4,5)P3", "values": [{"measurement": "Effect on activation of SGK2 by PDK1", "setting": "SGK2", "result": "slightly inhibited"}, {"measurement": "Effect on phosphorylation and activation of SGK by PDK1", "setting": "SGK", "result": "unaffected"}, {"measurement": "Effect on activation of SGK3 by PDK1", "setting": "SGK3 [1]", "result": "slightly inhibited"}]}
{"molecule": "OC[C@@H](O)[C@@H](O)[C@H](O)[C@@H](O)CO", "note": "[sorbitol]", "values": [{"measurement": "Effect of the stimulus on SGK3 activity (in words)", "setting": "SGK3 [2]; [4]", "result": "had no effect"}, {"measurement": "Effect of the stimulus on SGK1 activity (in words)", "setting": "SGK1; [4]", "result": "potently inhibited"}, {"measurement": "Effect of the stimulus on SGK2α activity (in words)", "setting": "SGK2α; [4]", "result": "had no effect"}]}
{"molecule": "C=C1C(=O)N[C@H](C)C(=O)N[C@@H](CC(C)C)C(=O)N[C@@H](C(=O)O)[C@H](C)C(=O)N[C@@H](CCCNC(=N)N)C(=O)N[C@@H](/C=C/C(C)=C/[C@H](C)[C@H](Cc2ccccc2)OC)[C@H](C)C(=O)N[C@@H](C(=O)O)CCC(=O)N1C", "note": "[microcystin, microcystin-LR] (R[Adda][d(γGlu)][NMeDha][dA]L[dAsp(3S-Me)]-OH; lactam N-7)", "values": [{"measurement": "Effect on inactivation of GST-SGK by PP2A", "setting": "[3]", "result": "prevented"}]}
{"molecule": "OO", "note": "[hydrogen peroxide]", "values": [{"measurement": "Activation of SGK3 by the stimulus", "setting": "SGK3 [2]; [5]", "result": 5, "unit": "fold"}, {"measurement": "Activation of SGK1 by the stimulus", "setting": "SGK1; [5]", "result": "five fold"}, {"measurement": "Activation of SGK2α by the stimulus", "setting": "SGK2α; [5]", "result": 5, "unit": "fold"}]}
